This note sets out measurements from US6376175B1, “Methods of discovering chemicals capable of functioning as gene expression modulators” (OSI Pharmaceuticals, Inc., priority 1989, dated 2002).

Common to all, as to type: cell-based
In one data set the test system is human G-CSF promoter. The settings on record: for GCSF fold induction relative to solvent control: Table 2 A) transcriptional activators; for GCSF fold induction relative to solvent control / GCSF fold inhibition relative to solvent control: G21 cells, 6 hours, high-throughput screen; for GCSF fold inhibition relative to solvent control: Table 2 B) transcriptional inhibitors. The text has this:
A human bladder carcinoma cell line (U5637, ATCC number HTB 9) was used for transfection of plasmids containing the human Granulocyte-Colony Stimulating Factor (G-CSF) promoter (see below) and was maintained in RPMI medium supplemented with 10% FCS. For HTP screening, transfected 5637 clones were transferred to a serum free defined medium identical to that used for the NIH/3T3 clones.
The sequences of OL-1, OL-2 and OL-5 recognize the G-CSF promoter region, OL-4 recognizes the first intron/exon junction and OL-3 recognizes sequences within the second exon (32). One of the clones isolated from the leukocyte library using these oligonucleotide probes contains a 3.5 kb SalI-BamHI fragment of G-CSF genomic sequence consisting of 3.3 kb of promoter sequence and two hundred base pairs of the coding region. This fragment was inserted into the vector pGEM-7-Zf (Promega, Madison, Wis.) which had previously been digested with SalI/BamHI, resulting in the vector pJM710 (FIG. 7). pJM710 was then digested with PstI, and the resulting 1.6 kb fragment containing G-CSF upstream sequences and the first 15 bases of the G-CSF leader sequence was inserted into the PstI site of pGEM5-Luci (FIG. 8) to generate pG-Lucl (FIG. 9). This construct was then used for transfection of 5637 human bladder carcinoma cells as described below in section E3. pGEM5-Luci (FIG. 8) had previously been constructed by inserting the […]/SalI fragment from pSVLuci (FIG. 2) containing the luciferase coding sequence and the SV40 late polyadenylation signal into pGEM 5-Zf (Promega, Madison Wis.) digested with XhoI/SalI.
pG-LUC1 (FIG. 9) and pRSVNeo were co-transfected into 5637 human bladder carcinoma cells as described above. Selection of G418 resistant clones was as described above except for using a concentration of 0.1 mg/ml G418. Analysis of cell clones was performed as above except that a known inducer of G-CSF expression (1-5 µg/ml lipopolysaccharide (LPS), E. coli serotype 055:b5, Difco, Detroit, Mich. or Sigma, St. Louis, Mo.) was used in place of dexamethasone.
(§1) Cell plating: Dynatech Microlite 96 well plates were custom pretreated for cell attachment by Dynatech Laboratories, Inc. (Chantilly, Va.). Alternatively, the 96 well plates were treated with 50 µl per well of human fibronectin (hFN, 15 µg/ml in PBS, Collaborative Research, Bedford, Mass.) overnight at 37 C. hFN-treated plates were washed with PBS using an Ultrawash 2 Microplate Washer (Dynatech Labs), to remove excess hFN prior to cell plating. M10, 532, and G21 cells maintained in their respective serum media (with 0.2 mg/ml G418) were washed with PBS, harvested by trypsinization, and counted using a hemocytometer and the Trypan Blue exclusion method according to protocols provided by Sigma, St. Louis, Mo. Chemical Company. Cells were then diluted into serum free defined media (with 0.2 mg/ml G418), and 0.2 ml of cell suspension per well was plated onto Dynatech treated plates (532 and G21) or hFN-treated plates (M10) using a Cetus Pro/Pette (Cetus, Emeryville Calif.). Plates were incubated overnight at 37 C in a humidified 5% CO2 atmosphere.
(§2) Addition of Chemicals to Cells: Chemicals from the Oncogene Science file were dissolved in DMSO at concentrations of 3-30 mg/ml. A liquid handling laboratory work station (RSP 5052, Tecan U.S. Chapel Hill, N.C.) was used to dilute the chemicals (three dilutions; 5 fold, 110 fold, and 726 fold). 10 11 of each dilution were added to each of quadruplicate samples of cells contained in the wells of 96-well Dyantech Microlite Plates. […]

The subject of data set [1] is human growth hormone promoter. The settings on record: for hGH fold induction relative to solvent control: Table 2 A) transcriptional activators.
Source text: A rat pituitary cell line, designated GC, (4, 25) was used for transfection of plasmids containing the human growth hormone promoter (see below) and was maintained in DMEM and Ham's F12 medium (1:1), supplemented with 12.5% FCS. For HTP screening, transfected GC clones were transferred to serum free defined medium consisting of DMEM and Ham's F12 medium (1:1) supplemented with growth factors, hormones and nutrients as described previously (17, 5).
The SalI-XhoI fragment of pSVLuci (FIG. 2) containing the luciferase coding sequences and the SV40 late polyadenylation site was inserted into pUC 8 (Biorad, Richmond, Calif.), which has been linearized by a SmaI/HinCII digestion and ligated to XhoI linkers (New England Biolabs, Beverly, Mass.). The new plasmid thus generated (pUXLuci; FIG. 4) was linearized by XhoI digestion followed by incubation with the Klenow fragment of E. coli DNA polymerase and the four deoxyribonucleotides to fill in the single-stranded ends of the vector. This linear (5.1 KB) form of pUXLuci was then ligated to the filled-in 550 bP HindIII-XbaI fragment of the plasmid phGH:CAT (FIG. 5) (25). Human growth hormone promoter sequences located on the HindIII-XbaI fragment were thus fused to the luciferase coding sequences located on pUXLuci generating the plasmid phGH-Luci (FIG. 6), which was used in transfections of GC cells as described below (Section E2).
phGH-LUCI (FIG. 6) and pRSVNeo, an antibiotic resistance plasmid (14), were co-transfected into GC rat pituitary cells as described above. Selection of G418-resistant cell clones was described above except for using a concentration of 0.2 mg/ml G418. Analysis of the cell clones was performed as above, except that known inducers of hGH expression (10-100 nM rat growth hormone releasing factor (rGRF, Bachem, Torrance, Calif.) and 10 μm forskolin (Sigma, St. Louis, Mo.) were used in place of dexamethasone. One clone, 532, was selected for further use in the high throughput screen.
as §1
Addition of Chemicals to Cells: Chemicals from the Oncogene Science file were dissolved in DMSO at concentrations of 3-30 mg/ml. A liquid handling laboratory work station (RSP 5052, Tecan U.S. Chapel Hill, N.C.) was used to dilute the chemicals (three dilutions; 5 fold, 110 fold, and 726 fold). 10 11 of each dilution were added to each of quadruplicate samples of cells contained in the wells of 96-well Dyantech Microlite Plates. Cell plates were then shaken on a microplate shaker (Dyantech, medium setting, 30 sec.) and incubated for 6 hours at 37 C, 5% CO2.
Bioluminescence Assay: After incubation with OSI-file chemicals, cell plates were washed 3 times with PBS using an Ultrawash 2 Microplate Washer (Dyantech Labs) and 75 µl of Lysis Buffer 2 were added to each well (Lysis Buffer 2 is the same as Lysis buffer 1 exept that the ATP and DTT concentrations were changed to 2.67 mM and 133 mM, respectively). […]

Data set [2] has as its system mouse mammary tumor virus (MMTV) promoter. The settings on record: for MMTV fold induction relative to solvent control: Table 2 A) transcriptional activators; for effect of steroids on luciferase expression in the MMTV reporter cell line M10: FIG. 43.
Source text: NIH/3T3 fibroblast cells (ATCC number CRL 1658) were used for transfection of plasmids containing the mouse mammary tumor virus (MMTV) promoter linked to firefly luciferase coding sequences (see below). Cells were propagated in Dulbecco's modified Eagle's medium (DMEM) obtained from Gibco, Grand Island, N.Y. and supplemented with 10% FCS. For high-throughput (HTP) screening, transfected NIH/3T3 clones were transferred to serum free defined medium consisting of Iscove's modified Eagle's medium (IMEM) and Ham's F12 medium (1:1) supplemented with growth factors, hormones and nutrients as described previously (43).
The firefly luciferase gene was removed from the plant expression plasmid pDO432 (33) (FIG. 1) as a 1.9 kb BamHI fragment and cloned into the BamHI site of pSVL (Pharmacia, Piscataway, N.J.), a mammalian expression vector containing the SV40 promoter. The resulting plasmid (pSVLuci; FIG. 2) was digested with XhoI and SalI to produce a 2.4 kb fragment containing the luciferase coding sequences and the SV40 late polyadenylation site. This fragment was inserted into the XhoI site of pMSG (Pharmacia, Piscataway, N.J.), a eukaryotic expression vector containing the MMTV promoter. The resulting MMTV promoter-luciferase fusion plasmid (pMLuci; FIG. 3) was used to transfect NIH/3T3 cells as described below (section E1). Similar constructs can be made using luciferase vectors from Clontech (Palo Alto, Calif.).
pMluci (FIG. 3) and pSV2Neo, an antibiotic resistance plasmid (34), were co-transfected into NIH/3T3 mouse fibroblast cells using the calcium phosphate precipitation method (15) with a commercially available kit (Pharmacia, Piscataway N.J.). Two days later, cells were transferred to media containing 0.4 mg/ml G418 and were grown for an additional 10-14 days. G418-resistant clones were isolated by standard methods. Once sufficient cell numbers were obtained, clones were analyzed based on several criteria: constitutive luciferase production, induction of luciferase expression by dexamethasone (1 μm, Sigma, St. Louis, Mo.), satisfactory attachment to microtiter plates used in the high-throughput screen (see Section G) and acceptable standard deviation in multiple luciferase expression assays (see below for assay protocol). This analysis was carried out using the luciferase assay conditions described in sections F and G. Of the clones which satisfied the above criteria for the high throuphput screen, one clone, M10, was selected for use.
as §1, §2

The mark [3] stands for this setting: 532 cells, 6 hours, high-throughput screen.
[4] abbreviates: M10 cells, 6 hours, high-throughput screen.

Turning to `CC(CCl)CBr` (single isomer, unassigned) [Chemical 2096], the “GCSF fold induction relative to solvent control” value in the data set on human G-CSF promoter turned out to be 3.27 fold. In addition, in data set [1] (setting [3]), the “hGH fold induction relative to solvent control” value came out at 0.61 fold. Further, the “MMTV fold induction relative to solvent control” value in data set [2] (setting [4]) amounted to 0.89 fold.
Consider `Cc1cc(-c2ccc(S(=O)(=O)[O-])cc2)c2ccc3c(-c4ccc(S(=O)(=O)[O-])cc4)cc(C)nc3c2n1.O.[Na+].[Na+]` [Chemical 189], for which the “GCSF fold induction relative to solvent control” value with human G-CSF promoter is listed as 1.06 fold. Further, the “hGH fold induction relative to solvent control” value in data set [1] (setting [3]) stood at 1.47 fold. For the same compound, the “MMTV fold induction relative to solvent control” value in data set [2] (setting [4]) is 2.80 fold.
On the same counts, the results for `Nc1nc(=O)n(C2CC(O)C(CO)O2)cc1Br` (stereo not shown) [Chemical 542] are 6.28 fold, 1.08 fold and 1.26 fold.
As to `O=c1[nH]c(=O)n(C2CC(O)C(CO)O2)cc1Br` (stereo not shown) [Chemical 543], the “GCSF fold induction relative to solvent control” value with human G-CSF promoter came out at 7.17 fold. Moreover, the “hGH fold induction relative to solvent control” value in data set [1] (setting [3]) was found to be 0.72 fold. Moreover, in data set [2] (setting [4]), the “MMTV fold induction relative to solvent control” value is 0.98 fold.
`O=C(OC(C(=O)O)C(OC(=O)c1ccccc1)C(=O)O)c1ccccc1` (stereo not shown) [Chemical 578]: the “GCSF fold inhibition relative to solvent control” value with human G-CSF promoter came out at 0.65 fold. The “hGH fold inhibition relative to solvent control” value in data set [1] (Table 2 B) transcriptional inhibitors, 532 cells, 6 hours, high-throughput screen) was determined as 4.00 fold. In addition, in data set [2] (Table 2 B) transcriptional inhibitors, M10 cells, 6 hours, high-throughput screen), the “MMTV fold inhibition relative to solvent control” value turned out to be 0.91 fold.
On to `C1CCNCC1` [Chemical 759], for which the “GCSF fold inhibition relative to solvent control” value in the data set on human G-CSF promoter stood at 0.64 fold.
With `Nc1ccc2nc3ccc(N)cc3[s+]c2c1` [Chemical 836], the “GCSF fold induction relative to solvent control” value in the data set on human G-CSF promoter stood at 3.20 fold. For the same compound, in data set [1] (setting [3]), the “hGH fold induction relative to solvent control” value amounted to 0.23 fold. Further, in data set [2] (setting [4]), the “MMTV fold induction relative to solvent control” value was 0.58 fold.
With `CC1(C)OC2CC3C4CCC5=CC(=O)C=CC5(C)C4(F)C(O)CC3(C)C2(C(=O)CO)O1` (stereo not shown) [Chemical 848], the “GCSF fold induction relative to solvent control” value in the data set with human G-CSF promoter came to 0.75 fold. Besides, in data set [1] (setting [3]), the “hGH fold induction relative to solvent control” value is 1.28 fold. In data set [2] (setting [4]), the “MMTV fold induction relative to solvent control” value is listed as 2.43 fold.
On the same counts, the results for `CC1(C(=O)OCC(F)(F)C(F)(F)C(F)(F)C(F)(F)C(F)(F)C(F)F)CCC(C(=O)OCC(F)(F)C(F)(F)C(F)(F)C(F)(F)C(F)(F)C(F)F)C1(C)C` (stereo not shown) [Chemical 1592] are 3.20 fold, 0.74 fold and 1.34 fold.
With `Cc1cc(=O)oc2c(CN(CC(=O)O)CC(=O)O)c(O)ccc12` [Chemical 1712], the “GCSF fold inhibition relative to solvent control” value in the data set with human G-CSF promoter is reported as 0.64 fold.
On to `C[C@]12CCC(=O)C=C1CC[C@@H]1[C@@H]2[C@@H](O)C[C@]2(C=O)[C@@H](C(=O)CO)CC[C@@H]12` [aldosterone, reference compound], for which the “effect of steroids on luciferase expression in the MMTV reporter cell line M10” value in data set [2] is reported as “stimulates clone M10”.
For the compound `C[C@@H]1C[C@H]2[C@@H]3CCC4=CC(=O)C=C[C@]4(C)[C@@]3(F)[C@@H](O)C[C@]2(C)[C@@]1(O)C(=O)CO` [dexamethasone, reference compound], the “stimulation of clone M10 by known inducer” value in data set [2] (1 μm dexamethasone) was found to be 11.6 fold.
As for `CC(=O)[C@H]1CC[C@H]2[C@@H]3CCC4=CC(=O)CC[C@]4(C)[C@H]3CC[C@]12C` [progesterone, reference compound], the “effect of steroids on luciferase expression in the MMTV reporter cell line M10” value in data set [2] is given as “did not”.
With lipopolysaccharide [reference compound], in the data set with human G-CSF promoter (5 µg/ml lipopolysaccharide), the “stimulation of clone G21 by known inducer” value came out at 5.7 fold.
Turning to “rat growth hormone releasing factor: rat growth hormone releasing factor (rGRF, Bachem), known inducer of hGH expression (HADAIFTSSYRRILGQLYARKLLHEIMNRQQGERNQEQRSRFN; Somatoliberin; UniProt P09916 31-73, looked up) [reference compound]”, the “stimulation of clone 532 by known inducer” value in data set [1] (100 nM rat growth hormone releasing factor) was found to be 2.2 fold.
